How the values were obtained:
[1] = system: MST2; conditions: biochemical assay; cited from earlier work
[2] = system: HBL1 ABC DLBCL cell line; assay: MTT assay (cellular metabolic activity), 72 h; type: cell-based; conditions: HBL1, 72 h
Experimental: (§1) DLBCL cell lines were treated with various concentrations of cerdulatinib for up to 72 h. The metabolic activities of cells were determined with MTT assay according to manufacturer's instruction (Roche Applied Science, Indianapolis, IN) at 72 h time point. IC50 was calculated using the Sigma Plot generated with GraphPad Prism 6 software (GraphPad, La Jolla, CA). Cell growth was measured at every 24 h counting live cells with flow cytometry as previously described. Cells were collected every 24 h and cell viability was determined by the PE Annexin V Apoptosis Detection Kit I (BD Biosciences).

[3] = system: SUDHL2 ABC DLBCL cell line; assay: MTT assay (cellular metabolic activity), 72 h; type: cell-based; conditions: Homo sapiens, SU-DHL-2; SUDHL2, 72 h
Experimental: as §1

[4] = system: LY1 (OCI-LY1) GCB DLBCL cell line; assay: MTT assay (cellular metabolic activity), 72 h; type: cell-based; conditions: Homo sapiens, OCI-Ly1, 72 h
Experimental: as §1

[5] = system: LY4 (OCI-LY4) GCB DLBCL cell line; assay: MTT assay (cellular metabolic activity), 72 h; type: cell-based; conditions: LY4, 72 h
Experimental: as §1

[6] = system: VAL GCB DLBCL cell line; assay: MTT assay (cellular metabolic activity), 72 h; type: cell-based
Experimental: as §1

[7] = system: LY3 (OCI-LY3) ABC DLBCL cell line; assay: MTT assay (cellular metabolic activity), 72 h; type: cell-based; conditions: Homo sapiens, OCI-Ly3, 72 h
Experimental: as §1

[8] = system: SUDHL6 GCB DLBCL cell line; assay: MTT assay (cellular metabolic activity), 72 h; type: cell-based; conditions: Homo sapiens, SU-DHL-6; SUDHL6, 72 h
Experimental: as §1

[9] = system: LY8 (OCI-LY8) GCB DLBCL cell line; assay: MTT assay (cellular metabolic activity), 72 h; type: cell-based; conditions: OCI-Ly8, 72 h
Experimental: as §1

[10] = system: LY10 (OCI-LY10) ABC DLBCL cell line; assay: MTT assay (cellular metabolic activity), 72 h; type: cell-based; conditions: LY10, 72 h
Experimental: as §1

[11] = system: primary CLL cells with the BTK C481S mutation; conditions: cited from earlier work
[12] = system: rat model of autoimmune disease; conditions: cited from earlier work
[13] = system: CHK1; conditions: biochemical assay; cited from earlier work
[14] = system: FLT3; conditions: biochemical assay; cited from earlier work
[15] = system: MLK1; conditions: biochemical assay; cited from earlier work
[16] = system: patients with CLL and NHL; set-up: method as in Flinn I, et al. 2015 ASCO annual meeting Abstract #8531; conditions: oral, ref Flinn I, et al. 2015 ASCO annual meeting Abstract #8531; cited from earlier work
[17] = system: panel of DLBCL cell lines; assay: MTT assay, whole panel; type: cell-based; conditions: all eleven DLBCL cell lines, 72 h
Experimental: as §1

[18] = system: ARK5; conditions: biochemical assay; cited from earlier work
[19] = system: GCK; conditions: biochemical assay; cited from earlier work
[20] = system: phosphorylation of STAT3 at Y705; assay: immunoblotting of p-STAT3 in IL-6/IL-10 stimulated DLBCL cell lines; type: cell-based; conditions: 3 μM, IL-6 and IL-10 stimulated ABC and GCB cell lines
Experimental: Immunoblotting were performed as previously described. Antibodies including total STAT3, SYK, PLCγ2, AKT, ERK1/2, PARP, caspase 3, and phosphorylated STAT3 (S727), STAT3 (Y705), SYK (Y525/526), PLCγ2 (Y759), PLCγ2 (Y1217), AKT (S473), ERK1/2 (Y204) and RB (S807/811) were purchased from Cell Signaling (Danvers, MA). Cyclin E antibody was purchased from Santa Cruz Biotechnology (Dallas, TX), and β-actin antibody was purchased from Sigma-Aldrich (St Louis, MO). Antibodies used in phosphoflow assay, including phosphorylated STAT3 (S727), SYK (Y525/526), PLCγ2 (Y759), AKT (S473), and ERK1/2 (Y204) were purchased from BD Biosciences (San Jose, CA).

[21] = system: AMPK; conditions: biochemical assay; cited from earlier work
[22] = system: RET; conditions: biochemical assay; cited from earlier work
[23] = system: FLT4; conditions: biochemical assay; cited from earlier work
[24] = system: primary human DLBCL samples; assay: MTT viability of primary DLBCL samples; type: cell-based; conditions: 0.5 μM and 1 μM, 72 h, six primary samples
Experimental: GCB cell lines OCI-LY1, OCI-LY4, OCI-LY8, OCI-LY18, SUDHL6 and VAL were cultured in Iscove's Modified Dulbecco's Medium (IMDM) supplemented with 20% Fetal Bovine Serum (FBS) and 100 μg/mL penicillin/streptomycin. ABC cell lines SUDHL2 and HBL1 were cultured in RPMI1640 supplemented with 20% FBS and 100 μg/mL penicillin/streptomycin. OCI-LY3 cells were grown in RPMI1640 supplemented with 20% FBS, 100 μg/ml penicillin/streptomycin and HEPES. ABC cell lines OCI-LY10 was cultured in Iscove's Modified Dulbecco's Medium (IMDM) supplemented with 20% human serum and 100 μg/mL penicillin/streptomycin. ABC cell line U2932 was cultured in high glucose RPMI1640 supplemented with 20% FBS, 100 μg/ml penicillin/streptomycin. All cells were maintained in a humidified 37°C/5% CO2 incubator. […]
as §1

[25] = system: TYK2; conditions: biochemical assay; cited from earlier work
[26] = system: JAK2; conditions: biochemical assay; cited from earlier work
[27] = system: LYN; conditions: cited from earlier work
[28] = system: MARK1; conditions: biochemical assay; cited from earlier work

CCS(=O)(=O)N1CCN(c2ccc(Nc3ncc(C(N)=O)c(NC4CC4)n3)cc2)CC1 [cerdulatinib]
IC50 [1]: 15 nM | IC50 [2]: 540 nM | IC50 [3]: 980 nM | IC50 [4]: 270 nM | IC50 [5]: 2100 nM | IC50 [6]: 130 nM | IC50 [7]: 1660 nM | IC50 [8]: 100 nM | IC50 [9]: 50 nM | IC50 [10]: 290 nM | proliferation of ibrutinib-resistant cells [11]: completely blocking | inflammation [12]: reduces inflammation | IC50 [13]: 42 nM | IC50 [14]: 90 nM | IC50 [15]: 5 nM | target tumor reductions [16]: greater than 50% | IC50 [17]: ≤ 2000 nM | IC50 [18]: 4 nM | IC50 [19]: 18 nM | phosphorylation of STAT3 at Y705 [20]: completely blocked | IC50 [21]: 6 nM | IC50 [22]: 105 nM | IC50 [23]: 51 nM | response of primary DLBCL cells (viability, MTT) [24]: responded to cerdulatinib in a concentration-dependent manner | IC50 [25]: 0.5 nM | IC50 [26]: 6 nM | cellular activity against LYN [27]: lacking cellular activity | IC50 [28]: 10 nM

Source: article PMC4791274, “Cerdulatinib, a novel dual SYK/JAK kinase inhibitor, has broad anti-tumor activity in both ABC and GCB types of diffuse large B cell lymphoma” (Oncotarget, 2015)
